{"source": "patent US20150307938A1", "about": "“METHOD TO IDENTIFY A NOVEL CLASS OF IMMUNOLOGIC ADJUVANTS” (Lancell, L.L.C., priority 2011, published 2015)", "key": {"[1]": {"tested_on": "skin", "test": "Affymetrix microarray of skin, DBP-4 hr and analogs vs. untreated; gene selection by log-2 fold change, Wilcoxon, Kendall tau (Tables 8, 9)", "format": "in vivo, mouse"}, "[2]": {"tested_on": "Fluzone", "parameters": "species or system C57BL/6 mice", "conditions": "mouse, in vivo"}, "[3]": {"tested_on": "skin dendritic cells", "test": "Flow cytometric analysis of Ahr−/− response to topical DBP", "conditions": "topical application"}}, "data": [{"smiles": "COC(=O)c1ccccc1C(=O)OC", "note": "[DMP, dimethylphthalate]", "values": [{"measurement": "Log2 Expression Level", "setting": "[1]; gene #1 of Table 8", "result": 5.82}, {"measurement": "Log2 Expression Level", "setting": "[1]; gene #2 of Table 8", "result": 6.47}, {"measurement": "Log2 Expression Level", "setting": "[1]; gene #3 of Table 8", "result": 8.83}, {"measurement": "Log2 Expression Level", "setting": "[1]; gene #4 of Table 8", "result": 8.83}, {"measurement": "Log2 Expression Level", "setting": "[1]; gene #5 of Table 8", "result": 6.08}, {"measurement": "Log2 Expression Level", "setting": "[1]; gene #6 of Table 8", "result": 6.09}, {"measurement": "Log2 Expression Level", "setting": "[1]; gene #7 of Table 8", "result": 5.32}, {"measurement": "Log2 Expression Level", "setting": "[1]; gene #8 of Table 8", "result": 6.09}, {"measurement": "Log2 Expression Level", "setting": "[1]; gene #9 of Table 8", "result": 6.09}, {"measurement": "Log2 Expression Level", "setting": "[1]; gene #10 of Table 8", "result": 6.09}, {"measurement": "Log2 Expression Level", "setting": "[1]; gene #11 of Table 8", "result": 5.32}, {"measurement": "Log2 Expression Level", "setting": "[1]; gene #12 of Table 8", "result": 5.32}, {"measurement": "Log2 Expression Level", "setting": "[1]; gene #13 of Table 8", "result": 5.32}, {"measurement": "Log2 Expression Level", "setting": "[1]; gene #14 of Table 8", "result": 4.91}, {"measurement": "Log2 Expression Level", "setting": "[1]; gene #15 of Table 8", "result": 4.91}, {"measurement": "Log2 Expression Level", "setting": "[1]; gene #16 of Table 8", "result": 6.50}, {"measurement": "Log2 Expression Level", "setting": "[1]; gene #17 of Table 8", "result": 8.80}, {"measurement": "Log2 Expression Level", "setting": "[1]; gene #18 of Table 8", "result": 8.80}, {"measurement": "Log2 Expression Level", "setting": "[1]; gene #19 of Table 8", "result": 8.29}, {"measurement": "Log2 Expression Level", "setting": "[1]; gene #20 of Table 8", "result": 8.26}, {"measurement": "Log2 Expression Level", "setting": "[1]; gene #21 of Table 8", "result": 7.91}, {"measurement": "Log2 Expression Level", "setting": "[1]; gene #22 of Table 8", "result": 5.99}, {"measurement": "Log2 Expression Level", "setting": "[1]; gene #23 of Table 8", "result": 5.65}, {"measurement": "Log2 Expression Level", "setting": "[1]; gene #24 of Table 8", "result": 7.33}, {"measurement": "Log2 Expression Level", "setting": "[1]; gene #25 of Table 8", "result": 7.33}, {"measurement": "Log2 Expression Level", "setting": "[1]; gene #26 of Table 8", "result": 7.55}, {"measurement": "Log2 Expression Level", "setting": "[1]; gene #27 of Table 8", "result": 7.55}, {"measurement": "Log2 Expression Level", "setting": "[1]; gene #28 of Table 8", "result": 7.55}, {"measurement": "Log2 Expression Level", "setting": "[1]; gene #29 of Table 8", "result": 5.77}, {"measurement": "Log2 Expression Level", "setting": "[1]; gene #30 of Table 8", "result": 8.30}, {"measurement": "Log2 Expression Level", "setting": "[1]; gene #31 of Table 8", "result": 8.30}, {"measurement": "Log2 Expression Level", "setting": "[1]; gene #32 of Table 8", "result": 8.30}, {"measurement": "Log2 Expression Level", "setting": "[1]; gene #33 of Table 8", "result": 5.48}, {"measurement": "Log2 Expression Level", "setting": "[1]; gene #34 of Table 8", "result": 6.50}, {"measurement": "Log2 Expression Level", "setting": "[1]; gene #35 of Table 8", "result": 6.50}, {"measurement": "Log2 Expression Level", "setting": "[1]; gene #36 of Table 8", "result": 8.83}, {"measurement": "Log2 Expression Level", "setting": "[1]; gene #37 of Table 8", "result": 8.83}, {"measurement": "Log2 Expression Level", "setting": "[1]; gene #38 of Table 8", "result": 8.83}, {"measurement": "Log2 Expression Level", "setting": "[1]; gene #39 of Table 8", "result": 7.03}, {"measurement": "Log2 Expression Level", "setting": "[1]; gene #40 of Table 8", "result": 7.09}, {"measurement": "Log2 Expression Level", "setting": "[1]; gene #41 of Table 8", "result": 7.32}, {"measurement": "Log2 Expression Level", "setting": "[1]; gene #42 of Table 8", "result": 6.91}, {"measurement": "Log2 Expression Level", "setting": "[1]; gene #43 of Table 8", "result": 6.91}, {"measurement": "Log2 Expression Level", "setting": "[1]; gene #44 of Table 8", "result": 7.32}, {"measurement": "Log2 Expression Level", "setting": "[1]; gene #45 of Table 8", "result": 6.91}, {"measurement": "Log2 Expression Level", "setting": "[1]; gene #46 of Table 8", "result": 7.32}, {"measurement": "Log2 Expression Level", "setting": "[1]; gene #47 of Table 8", "result": 8.08}, {"measurement": "Log2 Expression Level", "setting": "[1]; gene #48 of Table 8", "result": 8.08}, {"measurement": "Log2 Expression Level", "setting": "[1]; gene #49 of Table 8", "result": 8.08}, {"measurement": "Log2 Expression Level", "setting": "[1]; gene #50 of Table 8", "result": 9.13}, {"measurement": "Log2 Expression Level", "setting": "[1]; gene #51 of Table 8", "result": 7.49}, {"measurement": "Log2 Expression Level", "setting": "[1]; gene #52 of Table 8", "result": 9.61}, {"measurement": "Log2 Expression Level", "setting": "[1]; gene #53 of Table 8", "result": 8.18}, {"measurement": "Log2 Expression Level", "setting": "[1]; gene #54 of Table 8", "result": 9.63}, {"measurement": "Log2 Expression Level", "setting": "[1]; gene #55 of Table 8", "result": 6.47}, {"measurement": "Log2 Expression Level", "setting": "[1]; gene #56 of Table 8", "result": 9.09}, {"measurement": "Log2 Expression Level", "setting": "[1]; gene #57 of Table 8", "result": 8.30}, {"measurement": "Log2 Expression Level", "setting": "[1]; gene #58 of Table 8", "result": 8.81}, {"measurement": "Log2 Expression Level", "setting": "[1]; gene #59 of Table 8", "result": 8.07}, {"measurement": "Log2 Expression Level", "setting": "[1]; gene #60 of Table 8", "result": 6.96}, {"measurement": "Log2 Expression Level", "setting": "[1]; gene #61 of Table 8", "result": 11.13}, {"measurement": "Log2 Expression Level", "setting": "[1]; gene #62 of Table 8", "result": 7.95}, {"measurement": "Log2 Expression Level", "setting": "[1]; gene #63 of Table 8", "result": 10.28}, {"measurement": "Log2 Expression Level", "setting": "[1]; gene #64 of Table 8", "result": 10.44}, {"measurement": "Log2 Expression Level", "setting": "[1]; gene #65 of Table 8", "result": 6.81}, {"measurement": "Log2 Expression Level", "setting": "[1]; gene #66 of Table 8", "result": 8.09}, {"measurement": "Log2 Expression Level", "setting": "[1]; gene #67 of Table 8", "result": 4.20}, {"measurement": "Log2 Expression Level", "setting": "[1]; gene #68 of Table 8", "result": 7.36}, {"measurement": "Log2 Expression Level", "setting": "[1]; gene #69 of Table 8", "result": 5.28}, {"measurement": "Log2 Expression Level", "setting": "[1]; gene #70 of Table 8", "result": 3.86}, {"measurement": "Log2 Expression Level", "setting": "[1]; gene #71 of Table 8", "result": 7.42}, {"measurement": "Log2 Expression Level", "setting": "[1]; gene #72 of Table 8", "result": 7.77}, {"measurement": "Log2 Expression Level", "setting": "[1]; gene #73 of Table 8", "result": 5.38}, {"measurement": "Log2 Expression Level", "setting": "[1]; gene #74 of Table 8", "result": 7.07}, {"measurement": "Log2 Expression Level", "setting": "[1]; gene #75 of Table 8", "result": 8.29}, {"measurement": "Log2 Expression Level", "setting": "[1]; gene #76 of Table 8", "result": 4.15}, {"measurement": "Log2 Expression Level", "setting": "[1]; gene #77 of Table 8", "result": 8.59}, {"measurement": "Log2 Expression Level", "setting": "[1]; gene #78 of Table 8", "result": 9.90}, {"measurement": "Log2 Expression Level", "setting": "[1]; gene #79 of Table 8", "result": 7.10}, {"measurement": "Log2 Expression Level", "setting": "[1]; gene #80 of Table 8", "result": 12.64}, {"measurement": "Log2 Expression Level", "setting": "[1]; gene #81 of Table 8", "result": 5.57}, {"measurement": "Log2 Expression Level", "setting": "[1]; gene #82 of Table 8", "result": 4.77}, {"measurement": "Log2 Expression Level", "setting": "[1]; gene #83 of Table 8", "result": 6.70}, {"measurement": "Log2 Expression Level", "setting": "[1]; gene #84 of Table 8", "result": 6.49}, {"measurement": "Log2 Expression Level", "setting": "[1]; gene #85 of Table 8", "result": 4.59}, {"measurement": "Log2 Expression Level", "setting": "[1]; gene #86 of Table 8", "result": 6.27}, {"measurement": "Log2 Expression Level", "setting": "[1]; gene #87 of Table 8", "result": 8.57}, {"measurement": "Log2 Expression Level", "setting": "[1]; gene #88 of Table 8", "result": 5.28}, {"measurement": "Log2 Expression Level", "setting": "[1]; gene #89 of Table 8", "result": 5.43}, {"measurement": "Log2 Expression Level", "setting": "[1]; gene #90 of Table 8", "result": 9.55}, {"measurement": "Log2 Expression Level", "setting": "[1]; gene #91 of Table 8", "result": 6.99}, {"measurement": "Log2 Expression Level", "setting": "[1]; gene #92 of Table 8", "result": 6.96}, {"measurement": "Log2 Expression Level", "setting": "[1]; gene #93 of Table 8", "result": 8.40}, {"measurement": "Log2 Expression Level", "setting": "[1]; gene #94 of Table 8", "result": 7.22}, {"measurement": "Log2 Expression Level", "setting": "[1]; gene #95 of Table 8", "result": 5.77}, {"measurement": "Log2 Expression Level", "setting": "[1]; gene #96 of Table 8", "result": 7.21}, {"measurement": "Log2 Expression Level", "setting": "[1]; gene #97 of Table 8", "result": 5.27}, {"measurement": "Log2 Expression Level", "setting": "[1]; gene #98 of Table 8", "result": 4.12}, {"measurement": "Log2 Expression Level", "setting": "[1]; gene #99 of Table 8", "result": 8.88}, {"measurement": "Log2 Expression Level", "setting": "[1]; gene #100 of Table 8", "result": 6.73}]}, {"smiles": "CC12CCC(CC1=O)C2(C)C", "note": "(stereo not drawn) [camphor]", "values": [{"measurement": "HAI titer / adjuvant effect with the same dose of Fluzone", "setting": "[2]", "result": "improved"}]}, {"smiles": "O=[N+]([O-])c1ccc(F)c([N+](=O)[O-])c1", "note": "[dinitrofluorobenzene, reference compound]", "values": [{"measurement": "skin dendritic cell response in AhR−/− mice", "setting": "[3]", "result": "severely impaired"}]}]}
